# Source: paper doi:10.1101/2021.09.30.462449v1 (biorxiv, 2021)
# How the values were obtained:
# Experiment in all cases: biochemical
# Details in all cases: read-out: % inhibition mean (Z'Lyte)
# [1] = biological target: PRKD1 (PKC mu) (Homo sapiens, UniProt Q15139)
# [2] = biological target: FGFR3 (Homo sapiens, UniProt P22607)
# [3] = biological target: AMPK (A1/B2/G3) (Homo sapiens, UniProt Q13131)
# [4] = biological target: MAPK10 (JNK3) (Homo sapiens, UniProt P53779)
# [5] = biological target: ABL1 E255K (Homo sapiens, UniProt P00519, E255K)
# [6] = biological target: RET S891A (Homo sapiens, UniProt P07949, S891A)
# RET S891A, sequence (P07949 whole entry S891A): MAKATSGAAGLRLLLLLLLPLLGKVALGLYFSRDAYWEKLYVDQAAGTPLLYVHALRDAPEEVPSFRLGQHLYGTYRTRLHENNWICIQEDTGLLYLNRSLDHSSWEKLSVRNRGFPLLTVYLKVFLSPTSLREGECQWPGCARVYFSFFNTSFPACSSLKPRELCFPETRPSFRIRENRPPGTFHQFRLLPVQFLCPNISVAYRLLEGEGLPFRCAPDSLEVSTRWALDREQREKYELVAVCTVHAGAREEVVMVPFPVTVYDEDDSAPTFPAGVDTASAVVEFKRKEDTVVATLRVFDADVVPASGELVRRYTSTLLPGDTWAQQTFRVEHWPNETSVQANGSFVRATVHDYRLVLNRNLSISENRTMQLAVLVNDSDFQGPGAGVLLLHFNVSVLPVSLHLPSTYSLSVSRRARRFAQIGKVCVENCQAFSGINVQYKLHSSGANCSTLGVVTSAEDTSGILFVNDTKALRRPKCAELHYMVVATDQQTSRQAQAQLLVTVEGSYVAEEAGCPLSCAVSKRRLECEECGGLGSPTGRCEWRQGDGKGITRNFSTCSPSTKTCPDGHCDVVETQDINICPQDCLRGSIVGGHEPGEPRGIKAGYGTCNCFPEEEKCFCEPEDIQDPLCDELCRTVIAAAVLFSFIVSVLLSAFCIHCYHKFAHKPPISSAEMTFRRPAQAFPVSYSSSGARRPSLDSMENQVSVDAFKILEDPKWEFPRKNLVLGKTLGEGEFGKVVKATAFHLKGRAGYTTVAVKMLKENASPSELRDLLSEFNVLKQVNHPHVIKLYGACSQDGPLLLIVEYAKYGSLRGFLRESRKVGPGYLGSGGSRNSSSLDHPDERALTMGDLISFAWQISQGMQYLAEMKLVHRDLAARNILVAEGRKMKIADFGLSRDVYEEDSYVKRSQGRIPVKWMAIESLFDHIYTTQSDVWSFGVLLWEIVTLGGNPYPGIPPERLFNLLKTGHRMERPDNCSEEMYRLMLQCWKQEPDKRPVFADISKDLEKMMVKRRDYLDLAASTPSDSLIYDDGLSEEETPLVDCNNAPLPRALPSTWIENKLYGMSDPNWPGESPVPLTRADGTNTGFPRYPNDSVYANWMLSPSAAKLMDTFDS
# [7] = biological target: DCAMKL2 (DCK2) (Homo sapiens, UniProt Q8N568)
# [8] = biological target: CSK (Homo sapiens, UniProt P41240)
# CSK, sequence (P41240 whole entry): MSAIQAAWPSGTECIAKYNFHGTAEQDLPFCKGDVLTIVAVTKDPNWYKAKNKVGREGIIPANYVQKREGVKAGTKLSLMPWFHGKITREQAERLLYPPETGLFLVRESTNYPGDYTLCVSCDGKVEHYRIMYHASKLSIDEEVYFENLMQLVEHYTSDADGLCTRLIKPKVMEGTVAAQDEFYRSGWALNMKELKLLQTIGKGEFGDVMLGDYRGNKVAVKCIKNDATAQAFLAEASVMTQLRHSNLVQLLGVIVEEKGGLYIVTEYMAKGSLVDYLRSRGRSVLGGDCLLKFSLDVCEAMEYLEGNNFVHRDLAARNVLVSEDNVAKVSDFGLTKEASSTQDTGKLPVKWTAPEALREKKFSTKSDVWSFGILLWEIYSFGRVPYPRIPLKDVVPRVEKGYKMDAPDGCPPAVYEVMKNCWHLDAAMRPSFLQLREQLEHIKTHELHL
# [9] = biological target: ACVR1B (ALK4) (Homo sapiens, UniProt P36896)
# ACVR1B (ALK4), sequence (P36896 whole entry): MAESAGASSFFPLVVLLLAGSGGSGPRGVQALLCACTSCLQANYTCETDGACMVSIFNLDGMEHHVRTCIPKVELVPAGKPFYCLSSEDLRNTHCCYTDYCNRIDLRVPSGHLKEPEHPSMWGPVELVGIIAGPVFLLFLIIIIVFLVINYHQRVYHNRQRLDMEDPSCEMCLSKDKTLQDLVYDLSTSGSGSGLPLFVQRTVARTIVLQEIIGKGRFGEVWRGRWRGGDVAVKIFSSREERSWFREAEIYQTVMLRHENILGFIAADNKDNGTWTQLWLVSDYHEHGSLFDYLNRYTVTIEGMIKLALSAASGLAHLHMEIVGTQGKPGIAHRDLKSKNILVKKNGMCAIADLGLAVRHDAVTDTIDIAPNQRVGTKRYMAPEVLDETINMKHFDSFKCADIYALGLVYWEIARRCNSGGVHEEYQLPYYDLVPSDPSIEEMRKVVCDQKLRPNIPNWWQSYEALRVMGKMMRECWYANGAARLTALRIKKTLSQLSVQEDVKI
# [10] = biological target: STK22D (TSSK1) (Homo sapiens, UniProt Q9BXA7)
# [11] = biological target: MAPK14 (p38 alpha) Direct (Homo sapiens, UniProt Q16539)
# MAPK14 (p38 alpha) Direct, sequence (Q16539 whole entry): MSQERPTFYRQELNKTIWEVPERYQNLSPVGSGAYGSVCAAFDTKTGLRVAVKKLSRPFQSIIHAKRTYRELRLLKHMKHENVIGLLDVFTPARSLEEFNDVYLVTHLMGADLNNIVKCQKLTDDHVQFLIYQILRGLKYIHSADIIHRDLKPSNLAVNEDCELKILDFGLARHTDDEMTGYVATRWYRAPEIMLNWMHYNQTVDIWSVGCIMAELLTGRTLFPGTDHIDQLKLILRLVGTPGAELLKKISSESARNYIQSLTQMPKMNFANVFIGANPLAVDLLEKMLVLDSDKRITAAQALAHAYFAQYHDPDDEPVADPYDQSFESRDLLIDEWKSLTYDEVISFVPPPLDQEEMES
# [12] = biological target: TXK (Homo sapiens, UniProt P42681)
# [13] = biological target: MAPKAPK5 (PRAK) (Homo sapiens, UniProt Q8IW41)
# [14] = biological target: PRKCE (PKC epsilon) (Homo sapiens, UniProt Q02156)
# PRKCE (PKC epsilon), sequence (Q02156 whole entry): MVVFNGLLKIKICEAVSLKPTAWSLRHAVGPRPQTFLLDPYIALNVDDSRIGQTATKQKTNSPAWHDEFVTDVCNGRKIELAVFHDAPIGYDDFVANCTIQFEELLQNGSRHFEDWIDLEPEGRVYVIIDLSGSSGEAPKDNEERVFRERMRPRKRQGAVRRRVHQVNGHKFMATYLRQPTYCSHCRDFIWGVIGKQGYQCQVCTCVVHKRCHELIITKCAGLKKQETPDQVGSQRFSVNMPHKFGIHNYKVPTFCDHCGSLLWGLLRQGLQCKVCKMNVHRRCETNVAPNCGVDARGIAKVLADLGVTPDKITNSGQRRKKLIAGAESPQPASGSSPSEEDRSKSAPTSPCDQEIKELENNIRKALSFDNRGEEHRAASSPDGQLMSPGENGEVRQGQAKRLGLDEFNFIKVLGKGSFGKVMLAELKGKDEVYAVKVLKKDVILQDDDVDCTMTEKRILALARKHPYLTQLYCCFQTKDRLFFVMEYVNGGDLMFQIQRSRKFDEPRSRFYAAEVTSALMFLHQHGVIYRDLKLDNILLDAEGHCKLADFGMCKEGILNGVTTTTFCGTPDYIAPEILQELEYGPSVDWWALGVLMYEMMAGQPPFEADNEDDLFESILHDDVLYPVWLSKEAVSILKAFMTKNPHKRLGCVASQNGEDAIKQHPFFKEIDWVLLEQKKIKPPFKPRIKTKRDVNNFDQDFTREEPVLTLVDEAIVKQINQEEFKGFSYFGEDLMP
# [15] = biological target: MARK4 (Homo sapiens, UniProt Q96L34)
# [16] = biological target: EPHB4 (Homo sapiens, UniProt P54760)
# [17] = biological target: LYN B (Homo sapiens, UniProt P07948)
# [18] = biological target: MAP3K9 (MLK1) (Homo sapiens, UniProt P80192)
# MAP3K9 (MLK1), sequence (P80192 whole entry): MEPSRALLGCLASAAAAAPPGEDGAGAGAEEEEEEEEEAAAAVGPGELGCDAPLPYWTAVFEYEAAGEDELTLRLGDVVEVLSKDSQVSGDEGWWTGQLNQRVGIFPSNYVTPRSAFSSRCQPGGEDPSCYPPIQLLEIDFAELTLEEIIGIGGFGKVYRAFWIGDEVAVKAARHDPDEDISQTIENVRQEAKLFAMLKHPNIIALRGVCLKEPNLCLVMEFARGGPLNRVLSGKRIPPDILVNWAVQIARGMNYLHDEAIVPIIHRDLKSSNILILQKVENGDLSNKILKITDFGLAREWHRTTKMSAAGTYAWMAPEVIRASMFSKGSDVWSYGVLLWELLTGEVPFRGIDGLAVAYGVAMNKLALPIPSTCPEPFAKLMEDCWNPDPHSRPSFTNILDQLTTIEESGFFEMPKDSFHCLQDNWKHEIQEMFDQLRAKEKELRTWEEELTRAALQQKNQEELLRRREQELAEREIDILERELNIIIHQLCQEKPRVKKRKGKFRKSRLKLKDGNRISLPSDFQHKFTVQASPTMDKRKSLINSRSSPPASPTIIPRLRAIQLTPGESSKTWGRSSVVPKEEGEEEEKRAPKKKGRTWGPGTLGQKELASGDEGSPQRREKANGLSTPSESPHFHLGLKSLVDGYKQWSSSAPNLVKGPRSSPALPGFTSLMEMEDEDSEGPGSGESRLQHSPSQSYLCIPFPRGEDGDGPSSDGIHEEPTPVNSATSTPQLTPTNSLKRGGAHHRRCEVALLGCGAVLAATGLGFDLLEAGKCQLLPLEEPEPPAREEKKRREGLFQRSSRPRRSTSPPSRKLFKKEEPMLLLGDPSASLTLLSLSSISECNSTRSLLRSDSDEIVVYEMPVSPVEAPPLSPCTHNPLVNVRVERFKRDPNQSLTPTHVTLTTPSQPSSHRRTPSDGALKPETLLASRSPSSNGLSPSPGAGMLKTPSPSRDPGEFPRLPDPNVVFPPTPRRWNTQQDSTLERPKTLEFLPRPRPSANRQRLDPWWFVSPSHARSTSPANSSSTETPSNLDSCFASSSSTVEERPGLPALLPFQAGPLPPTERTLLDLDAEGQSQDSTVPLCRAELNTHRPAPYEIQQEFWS
# [19] = biological target: STK24 (MST3) (Homo sapiens, UniProt Q9Y6E0)
# [20] = biological target: MAPK9 (JNK2) (Homo sapiens, UniProt P45984)
# [21] = biological target: HCK (Homo sapiens, UniProt P08631)
# [22] = biological target: SRPK2 (Homo sapiens, UniProt P78362)
# SRPK2, sequence (P78362 whole entry): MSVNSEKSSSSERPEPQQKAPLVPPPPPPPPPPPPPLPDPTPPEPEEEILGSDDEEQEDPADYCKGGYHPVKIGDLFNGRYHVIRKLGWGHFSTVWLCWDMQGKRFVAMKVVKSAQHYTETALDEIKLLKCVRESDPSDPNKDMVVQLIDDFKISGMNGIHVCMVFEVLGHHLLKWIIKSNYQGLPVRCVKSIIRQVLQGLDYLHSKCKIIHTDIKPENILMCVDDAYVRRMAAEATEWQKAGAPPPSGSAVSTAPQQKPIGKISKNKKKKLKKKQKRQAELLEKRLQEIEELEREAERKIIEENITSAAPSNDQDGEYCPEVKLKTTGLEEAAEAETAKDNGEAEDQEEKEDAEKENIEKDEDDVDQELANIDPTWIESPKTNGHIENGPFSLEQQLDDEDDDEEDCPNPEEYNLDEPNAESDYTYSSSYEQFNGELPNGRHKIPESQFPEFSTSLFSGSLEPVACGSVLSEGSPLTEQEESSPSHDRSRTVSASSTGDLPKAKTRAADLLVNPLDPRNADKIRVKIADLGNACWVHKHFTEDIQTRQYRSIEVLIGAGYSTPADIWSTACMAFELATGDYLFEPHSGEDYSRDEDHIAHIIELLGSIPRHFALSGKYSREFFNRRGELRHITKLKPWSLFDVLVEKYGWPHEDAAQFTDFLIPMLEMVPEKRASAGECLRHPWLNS
# [23] = biological target: KIT V560G (Homo sapiens, UniProt P10721, V560G)
# [24] = biological target: EPHA4 (Homo sapiens, UniProt P54764)
# [25] = biological target: EPHA8 (Homo sapiens, UniProt P29322)
# [26] = biological target: EGFR (ErbB1) C797S (Homo sapiens, UniProt P00533, C797S)
# [27] = biological target: FLT1 (VEGFR1) (Homo sapiens, UniProt P17948)
# [28] = biological target: MERTK (cMER) (Homo sapiens, UniProt Q12866)
# [29] = biological target: NEK2 (Homo sapiens, UniProt P51955)
smiles,measurement,setting,value
"COc1ccc2nc3cc(Cl)ccc3c(Nc3cc(CN4CCCC4)c(O)c(CN4CCCC4)c3)c2n1 [Pyronaridine, 4-[(7-Chloro-2-methoxybenzo[b][1,5]naphthyridin-10-yl)amino]-2,6-bis(1-pyrrolidinylmethyl)phenol phosphate (1:4)]",inhibition at 1 µM,[1],-2%
same,inhibition at 1 µM,[2],-2%
same,inhibition at 1 µM,[3],4%
same,inhibition at 1 µM,[4],0%
same,inhibition at 1 µM,[5],7%
same,inhibition at 1 µM,[6],-3%
same,inhibition at 1 µM,[7],-1%
same,inhibition at 1 µM,[8],-3%
same,inhibition at 1 µM,[9],-1%
same,inhibition at 1 µM,[10],6%
same,inhibition at 1 µM,[11],3%
same,inhibition at 1 µM,[12],4%
same,inhibition at 1 µM,[13],3%
same,inhibition at 1 µM,[14],6%
same,inhibition at 1 µM,[15],-4%
same,inhibition at 1 µM,[16],7%
same,inhibition at 1 µM,[17],-2%
same,inhibition at 1 µM,[18],17%
same,inhibition at 1 µM,[19],4%
same,inhibition at 1 µM,[20],-15%
same,inhibition at 1 µM,[21],4%
same,inhibition at 1 µM,[22],-4%
same,inhibition at 1 µM,[23],-5%
same,inhibition at 1 µM,[24],-2%
same,inhibition at 1 µM,[25],1%
same,inhibition at 1 µM,[26],-7%
same,inhibition at 1 µM,[27],-6%
same,inhibition at 1 µM,[28],2%
same,inhibition at 1 µM,[29],-4%
